In patent US9592224B2, “Substituted benzothiazoles and therapeutic uses thereof for the treatment of human diseases” (CONSEJO SUPERIOR DE INVESTIGACIONES CIENTÍFICAS, priority 2013, dated 2017):

Key:
[1] = biological target: T1, recombinant human enzyme CK-1δ (Homo sapiens, UniProt P48730); experiment: Enzyme inhibition assay, Luminometer Kinase-GLO method, CK-1δ; assay type: biochemical; settings: for IC50: casein substrate, 4 μM ATP, 60 minutes at 30° C., read-out: Inhibitory Concentration 50 (IC50) CK-1δ
T1 construct: purchased Millipore Iberica SAU
Description: (§1) Enzyme inhibition assays were performed using the Luminometer Kinase-GLO® method. Recombinant human enzyme CK-1δ was purchased from Millipore Iberica SAU and recombinant human enzyme CK-1ε was purchased from Invitrogen. The phosphorylation substration chosen was casein. The Luminescent Kinase Kit (catalogue no. V6711) was obtained from Promega. ATP and other reagents were purchased from Sigma-Aldrich (St. Louis, Mo.).
(§2) The assays were conducted in buffer using 96-well plates. In a typical assay: 10 μL of the test compound (dissolved in dimethylsulfoxide at a concentration of 1 mM and, in turn, dissolved in buffer to the required concentration for the experiment) and 10 μL (16 ng) of the CK-1δ enzyme or 10 μL (50 ng) of the CK-1ε enzyme row were added to each well followed by 20 μL of buffer containing 0.1% casein as substrate and 4 μM of ATP. The assay buffer contained: 50 mM HEPES, pH 7.5; 0.01% Brij-35; 10 mM MgCl2; 1 mM EGTA and 0.01% NaN3. […] After incubating for 60 minutes at 30° C., the enzymatic reaction was stopped using 40 μL of Kinase-GLO® reagent. Luminescence was measured after ten minutes using a FLUOstar Optima (BMG Labtechnologies GmbH, Offenburg, Germany) multimode reader. The activity was proportional to the difference between the total and consumed ATP. Inhibition activities were calculated in accordance with the maximum activity measured in the absence of inhibitor. IC50 is defined as the concentration of each compound that reduces enzyme activity by 50% with respect to that obtained without inhibitor.

[2] = biological target: T2, recombinant human enzyme CK-1ε (Homo sapiens, UniProt P49674); experiment: Enzyme inhibition assay, Luminometer Kinase-GLO method, CK-1ε; assay type: biochemical; settings: for IC50: casein substrate, 4 μM ATP, 60 minutes at 30° C., read-out: Inhibitory Concentration 50 (IC50) CK-1ε
T2 construct: purchased Invitrogen
Description: as §1, §2

T1 sequence (P48730 whole entry): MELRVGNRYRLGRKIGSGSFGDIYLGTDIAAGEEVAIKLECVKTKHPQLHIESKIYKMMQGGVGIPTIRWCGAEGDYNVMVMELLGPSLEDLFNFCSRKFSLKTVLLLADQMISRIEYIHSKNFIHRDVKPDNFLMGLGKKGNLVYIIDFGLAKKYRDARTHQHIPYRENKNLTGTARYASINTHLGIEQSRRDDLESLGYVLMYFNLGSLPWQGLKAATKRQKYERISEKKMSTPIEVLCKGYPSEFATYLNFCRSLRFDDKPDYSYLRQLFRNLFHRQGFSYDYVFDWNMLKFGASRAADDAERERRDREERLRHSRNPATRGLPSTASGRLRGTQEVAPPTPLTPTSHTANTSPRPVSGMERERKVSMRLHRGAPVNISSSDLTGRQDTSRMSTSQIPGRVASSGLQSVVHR
T2 sequence (P49674 whole entry): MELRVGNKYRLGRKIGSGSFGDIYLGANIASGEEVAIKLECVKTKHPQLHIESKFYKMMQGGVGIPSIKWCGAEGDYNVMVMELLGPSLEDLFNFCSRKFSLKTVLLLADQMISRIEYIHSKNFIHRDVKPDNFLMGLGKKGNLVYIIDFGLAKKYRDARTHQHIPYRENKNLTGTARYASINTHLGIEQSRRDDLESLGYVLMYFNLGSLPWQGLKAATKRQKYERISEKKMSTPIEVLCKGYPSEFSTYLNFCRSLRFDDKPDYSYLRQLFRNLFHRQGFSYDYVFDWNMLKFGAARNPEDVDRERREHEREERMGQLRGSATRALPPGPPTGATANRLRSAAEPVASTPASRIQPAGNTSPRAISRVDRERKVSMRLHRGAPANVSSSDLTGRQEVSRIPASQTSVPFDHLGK

IC50 [1] [µM]	IC50 [2] [µM]	inhibition at 10 µM [2] [%]	inhibition at 10 µM [1] [%]	SMILES
0.07	0.5			COc1ccc(CC(=O)Nc2nc3ccc(Cl)cc3s2)cc1 [Compound 2, N-(6-chlorobenzothiazole-2-yl)-2-(4-methoxyphenyl)acetamide]
0.068	7.73			O=C(Cc1ccccc1Cl)Nc1nc2ccc(C(F)(F)F)cc2s1 [Compound 7, N-(6-trifluoromethylbenzothiazole-2-yl)-2-(2-chlorophenyl)acetamide]
0.056	0.87			O=C(Cc1ccc(Cl)c(Cl)c1)Nc1nc2ccc(C(F)(F)F)cc2s1 [Compound 9, N-(6-trifluoromethylbenzothiazole-2-yl)-2-(3,4-dichlorophenyl)acetamide]
0.079	0.94			COc1cc(CC(=O)Nc2nc3ccc(OC(F)(F)F)cc3s2)cc(OC)c1OC [Compound 11, N-(6-trifluoromethoxybenzothiazole-2-yl)-2-(3,4,5-trimethoxyphenyl)acetamide]
0.087	0.72			O=C(Cc1cccc(C(F)(F)F)c1)Nc1nc2ccc(C(F)(F)F)cc2s1 [Compound 13, N-(6-trifluoromethylbenzothiazole-2-yl)-2-(3-(trifluoromethyl)phenyl)acetamide]
0.26	2.75			O=C(Nc1nc2ccc(C(F)(F)F)cc2s1)C(c1ccccc1)c1ccccc1 [Compound 15, N-(6-trifluoromethylbenzothiazole-2-yl)-2,2-diphenylacetamide]
0.84	5.07			COc1ccc2nc(NC(=O)C(c3ccccc3)c3ccccc3)sc2c1 [Compound 16, N-(6-methoxybenzothiazole-2-yl)-2,2-diphenylacetamide]
0.57	9.4			O=C(CCc1ccccc1)Nc1nc2ccc([N+](=O)[O-])cc2s1 [Compound 17, N-(6-nitrobenzothiazole-2-yl)-3-phenylpropanamide]
0.53	3.08			O=C(Cc1ccc(F)cc1)Nc1nc2ccccc2s1 [Compound 18, N-(benzothiazole-2-yl)-2-(4-fluorophenyl)acetamide]
0.57	2.41			COc1ccc(CC(=O)Nc2nc3ccc(OC)cc3s2)cc1 [Compound 19, N-(6-methoxybenzothiazole-2-yl)-2-(4-methoxyphenyl)acetamide]
0.75	8.75			COc1ccc2nc(NC(=O)Cc3ccc(Cl)cc3)sc2c1 [Compound 21, N-(6-methoxybenzothiazole-2-yl)-2-(4-chlorophenyl)acetamide]
0.53	3.73			COc1ccc2nc(NC(=O)Cc3cccc(Cl)c3)sc2c1 [Compound 22, N-(6-methoxybenzothiazole-2-yl)-2-(3-chlorophenyl)acetamide]
0.54	1.02			O=C(Cc1cccc(Cl)c1)Nc1nc2ccc(OC(F)(F)F)cc2s1 [Compound 23, N-(6-trifluoromethoxybenzothiazole-2-yl)-2-(3-chlorophenyl)acetamide]
0.74	11			O=C(Nc1cccc(Cl)c1)Nc1nc2ccc(C(F)(F)F)cc2s1 [Compound 24, N-(6-trifluoromethylbenzothiazole-2-yl)-N′-(3-chlorophenyl)urea]
0.42	2.43			COc1cccc(CC(=O)Nc2nc3ccc(OC)cc3s2)c1 [Compound 25, N-(6-methoxybenzothiazole-2-yl)-2-(3-methoxyphenyl)acetamide]
0.99	8.97			CCOc1ccc2nc(NC(=O)Cc3cccc(OC)c3)sc2c1 [Compound 26, N-(6-ethoxybenzothiazole-2-yl)-2-(3-methoxyphenyl)acetamide]
0.62	7.39			COc1ccccc1CC(=O)Nc1nc2ccc(OC(F)(F)F)cc2s1 [Compound 27, N-(6-trifluoromethoxybenzothiazole-2-yl)-2-(2-methoxyphenyl)acetamide]
0.59	0.93			O=C(Cc1ccc(Cl)c(Cl)c1)Nc1nc2ccc(OC(F)(F)F)cc2s1 [Compound 28, N-(6-trifluoromethoxybenzothiazole-2-yl)-2-(3,4-dichlorophenyl)acetamide]
0.19	3.14			COc1ccc(OC)c(CC(=O)Nc2nc3ccc(C(F)(F)F)cc3s2)c1 [Compound 29, N-(6-trifluoromethylbenzothiazole-2-yl)-2-(2,5-dimethoxyphenyl)acetamide]
0.32	1.15			COc1ccccc1CC(=O)Nc1nc2ccc(Cl)cc2s1 [Compound 31, N-(6-chlorobenzothiazole-2-yl)-2-(2-methoxyphenyl)acetamide]

IC50 [1] [µM]	IC50 [2] [µM]	inhibition at 10 µM [2] [%]	inhibition at 10 µM [1] [%]	SMILES
0.26	1.03			COc1ccccc1CC(=O)Nc1nc2ccc(Br)cc2s1 [Compound 32, N-(6-bromobenzothiazole-2-yl)-2-(2-methoxyphenyl)acetamide]
1.96	7.31			O=C(Nc1nc2ccccc2s1)C(c1ccccc1)c1ccccc1 [Compound 33, N-(benzothiazole-2-yl)-2,2-diphenylacetamide]
2.5	9.73			O=C(CC(c1ccccc1)c1ccccc1)Nc1nc2ccccc2s1 [Compound 34, N-(benzothiazole-2-yl)-3,3-diphenylpropanamide]
4.37		48		O=C(COCc1ccccc1)Nc1nc2ccccc2s1 [Compound 35, N-(benzothiazole-2-yl)-2-benzyloxyacetamide]
7.29		48		O=C(CNC(=O)c1ccccc1)Nc1nc2ccccc2s1 [Compound 36, N-[2-(benzothiazole-2-ylamine)-2-oxoethyl]benzamide]
1.93	13			O=C(CNC(=O)C(c1ccccc1)c1ccccc1)Nc1nc2ccccc2s1 [Compound 37, N-(benzothiazole-2-yl)-2-(2,2-diphenylacetamide)acetamide]
6.33		37		O=C(Cc1ccccc1)NCC(=O)Nc1nc2ccccc2s1 [Compound 38, N-(benzothiazole-2-yl)-2-(2-phenylacetamide)acetamide]
2.82	7.86			CCOc1ccc2nc(NC(=O)C(c3ccccc3)c3ccccc3)sc2c1 [Compound 39, N-(6-ethoxybenzothiazole-2-yl)-2,2-diphenylacetamide]
6.68	1.6			CCOC(=O)c1ccc2nc(NC(=O)C(c3ccccc3)c3ccccc3)sc2c1 [Compound 40, Carboxylate[2-(2,2-diphenylacetamide)benzothiazole-6-yl]ethyl]
		10	10	NS(=O)(=O)c1ccc2nc(NC(=O)C(c3ccccc3)c3ccccc3)sc2c1 [Compound 41, N-(6-sulfamoylbenzothiazole-2-yl)-2,2-diphenylacetamide]
		10	10	CCNS(=O)(=O)c1ccc2nc(NC(=O)C(c3ccccc3)c3ccccc3)sc2c1 [Compound 42, N-(6-(N-ethylsulfamoyl)benzothiazole-2-yl)-2,2-diphenylacetamide]
		10	10	CCCCNS(=O)(=O)c1ccc2nc(NC(=O)C(c3ccccc3)c3ccccc3)sc2c1 [Compound 43, N-(6-(N-butylsulfamoyl)benzothiazole-2-yl)-2,2-diphenylacetamide]
9.83	3.47			CCN(CC)S(=O)(=O)c1ccc2nc(NC(=O)C(c3ccccc3)c3ccccc3)sc2c1 [Compound 44, N-(6-(N,N-diethylsulfamoyl)benzothiazole-2-yl)-2,2-diphenylacetamide]
1.09	9.49			CCOc1ccc2nc(NC(=O)Cc3ccc(OC)cc3)sc2c1 [Compound 45, N-(6-ethoxybenzothiazole-2-yl)-2-(4-methoxyphenyl)acetamide]
5.5		29		COc1ccc(NC(=O)Nc2nc3ccc(C(F)(F)F)cc3s2)cc1 [Compound 46, N-(6-trifluoromethylbenzothiazole-2-yl)-N′-(4-methoxyphenyl)urea]
3.58		31		O=C(CCc1cccc(Cl)c1)Nc1nc2ccccc2s1 [Compound 47, N-(benzothiazole-2-yl)-3-(3-chlorophenyl)propanamide]
1.21	9.75			CCOc1ccc2nc(NC(=O)Cc3cccc(Cl)c3)sc2c1 [Compound 48, N-(6-ethoxybenzothiazole-2-yl)-2-(3-chlorophenyl)acetamide]
9.71		30		COc1ccc2nc(NC(=O)Cc3ccccc3Cl)sc2c1 [Compound 49, N-(6-methoxybenzothiazole-2-yl)-2-(2-chlorophenyl)acetamide]
17.4		20		CCOc1ccc2nc(NC(=O)Cc3ccccc3Cl)sc2c1 [Compound 50, N-(6-ethoxybenzothiazole-2-yl)-2-(2-chlorophenyl)acetamide]
